Active and inactive are the calls of the source. No cut-off for these calls is given here.
Key:
[1] = system: SH-SY5Y; assay: Neuroprotective activity in human APP695-transfected SH-SY5Y cells assessed as decrease of malondialdehyde level after 16 hrs (reference value: 52 +/- 1.84 nmol/mg); type: functional
[2] = system: SH-SY5Y; assay: Neuroprotective activity in human APP695-transfected SH-SY5Y cells assessed as inhibition of H2O2-induced ROS production at 5 uM after 60 mins by DCFA-DA assay; type: functional; conditions: 1 h
[3] = system: Acetylcholinesterase; assay: Inhibition of AChE (unknown origin) measured for 3 mins by Ellman colorimetric method; conditions: Homo sapiens
[4] = system: SH-SY5Y; assay: Neuroprotective activity in human APP695-transfected SH-SY5Y cells assessed as H2O2-induced GSH-glutathione disulfide level after 16 hrs (reference value: 6.85 +/- 0.92 nmol/mg); type: functional
[5] = system: SH-SY5Y; assay: Neuroprotective activity in human APP695-transfected SH-SY5Y cells assessed as increase of glutathione level after 16 hrs (reference value: 17.79 +/- 1.59 nmol/mg); type: functional
[6] = system: SH-SY5Y; assay: Neuroprotective activity in human APP695-transfected SH-SY5Y cells assessed as inhibition of ROS production at 5 uM after 60 mins by DCFA-DA assay; type: functional, cell-based
[7] = system: SH-SY5Y; assay: Neuroprotective activity in human APP695-transfected SH-SY5Y cells assessed as inhibition of H2O2-induced decrease in glutathione level after 16 hrs (reference value: 22.95 +/- 0.59 nmol/mg); type: functional
[8] = system: SH-SY5Y; assay: Neuroprotective activity in human APP695-transfected SH-SY5Y cells assessed as decrease of H2O2-induced malondialdehyde level after 16 hrs (reference value: 67.83 +/- 5.86 nmol/mg); type: functional
[9] = system: SH-SY5Y; assay: Neuroprotective activity in human APP695-transfected SH-SY5Y cells assessed as GSH-glutathione disulfide level after 16 hrs (reference value: 4.71 +/- 0.48 nmol/mg); type: functional
[10] = Cytotoxicity against human APP695-transfected SH-SY5Y cells at 10 uM after 24 hrs by MTT assay; type: cell-based
[11] = molecular target: Beta-secretase 1 (Homo sapiens, UniProt P56817); assay: Inhibition of human recombinant BACE using H-RE-(EDANS)EVNLDAEFK(DABCYL)R-OH as substrate preincubated for 1 hr before addition of substrate measured after 1 hr
Beta-secretase 1, sequence (P56817 whole entry): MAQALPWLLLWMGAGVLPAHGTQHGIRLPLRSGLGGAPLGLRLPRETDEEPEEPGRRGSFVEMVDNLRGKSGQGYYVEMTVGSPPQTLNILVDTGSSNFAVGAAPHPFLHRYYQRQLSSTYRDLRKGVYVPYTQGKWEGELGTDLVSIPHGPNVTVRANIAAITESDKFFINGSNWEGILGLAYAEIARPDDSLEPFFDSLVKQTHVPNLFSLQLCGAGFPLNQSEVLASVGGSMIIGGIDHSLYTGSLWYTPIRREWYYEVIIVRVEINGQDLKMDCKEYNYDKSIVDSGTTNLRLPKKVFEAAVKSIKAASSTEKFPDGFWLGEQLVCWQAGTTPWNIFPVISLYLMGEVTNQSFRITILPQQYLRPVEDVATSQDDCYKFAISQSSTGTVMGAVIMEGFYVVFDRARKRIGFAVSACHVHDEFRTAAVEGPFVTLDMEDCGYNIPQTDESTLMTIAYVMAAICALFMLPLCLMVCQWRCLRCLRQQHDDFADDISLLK

[12] = system: SH-SY5Y; assay: Neuroprotective activity in human APP695-transfected SH-SY5Y cells assessed as inhibition of H2O2-induced increase of caspase-3 activity after 60 mins by fluorescence assay; type: functional
[13] = system: SH-SY5Y; assay: Neuroprotective activity in human APP695-transfected SH-SY5Y cells assessed as inhibition of H2O2-induced ROS production after 60 mins by DCFA-DA assay; type: functional, cell-based; conditions: 1 h
[14] = molecular target: Amyloid-beta precursor protein (Homo sapiens) (UniProt P05067); assay: Inhibition of beta amyloid (25 to 35) (unknown origin) disaggregation after 4 days by thioflavin-T fluorescence analysis
Amyloid-beta precursor protein (Homo sapiens), sequence (P05067 whole entry): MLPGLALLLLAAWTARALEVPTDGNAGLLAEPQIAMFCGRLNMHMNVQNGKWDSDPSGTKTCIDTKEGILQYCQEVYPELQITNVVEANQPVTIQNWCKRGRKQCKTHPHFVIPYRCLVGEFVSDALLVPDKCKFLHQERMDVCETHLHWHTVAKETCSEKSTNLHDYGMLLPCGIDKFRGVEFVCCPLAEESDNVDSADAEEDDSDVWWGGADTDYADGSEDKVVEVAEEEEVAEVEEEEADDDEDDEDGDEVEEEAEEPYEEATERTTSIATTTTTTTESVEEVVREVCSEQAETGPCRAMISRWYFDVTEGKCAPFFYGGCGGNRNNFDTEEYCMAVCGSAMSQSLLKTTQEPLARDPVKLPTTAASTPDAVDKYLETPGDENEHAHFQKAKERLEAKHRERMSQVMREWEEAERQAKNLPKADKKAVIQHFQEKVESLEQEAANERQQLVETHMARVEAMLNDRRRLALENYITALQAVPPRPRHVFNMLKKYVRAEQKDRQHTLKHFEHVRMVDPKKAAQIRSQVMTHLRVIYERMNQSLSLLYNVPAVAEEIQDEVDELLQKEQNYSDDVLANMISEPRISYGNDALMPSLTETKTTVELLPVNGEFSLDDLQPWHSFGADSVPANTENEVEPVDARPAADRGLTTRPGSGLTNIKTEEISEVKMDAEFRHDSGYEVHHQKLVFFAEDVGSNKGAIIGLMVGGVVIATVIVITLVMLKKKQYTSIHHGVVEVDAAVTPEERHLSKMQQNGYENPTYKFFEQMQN

[15] = molecular target: Amyloid-beta precursor protein (Homo sapiens) (UniProt P05067); assay: Inhibition of beta amyloid (25 to 35) (unknown origin) aggregation after 4 days by thioflavin-T fluorescence analysis

Row | SMILES | Activity [1] [nmol/mg] | inhibition at 5 µM [2] [%] | inhibition [3] | Activity [4] [nmol/mg] | Activity [5] [nmol/mg] | inhibition [6] | Activity [7] [nmol/mg] | Activity [8] [nmol/mg] | Activity [9] [nmol/mg] | Activity [10] | IC50 [11] [µM] | inhibition (INH) [12] [%] | IC50 [13] [µM] | Activity [14] | Activity [15]
1 | CC1(C)OB(/C=C/c2ccccc2)OC1(C)C | 40.71 | < 50 | inactive | 4.89 | 34.74 | inactive | 37.04 | 51.76 | 3.87 | Non-toxic |  |  |  |  | 
2 | OB(O)c1ccccc1 [PHENYLBORONIC ACID] | 40.75 | < 50 | inactive | 4.85 | 28.62 | inactive | 28.01 | 52.78 | 5.85 | Non-toxic |  |  |  |  | 
3 | CN1CC(=O)OB(/C=C/c2ccccc2)OC(=O)C1 | 41.96 | < 50 | inactive | 5.01 | 35.2 | inactive | 39.38 | 57.54 | 6.11 | Non-toxic | 136 |  |  |  | 
4 | OB(O)/C=C/C1CCCCC1 | 37.12 | < 50 | inactive | 6.03 | 24.06 | inactive | 35.58 | 45.38 | 4.37 | Non-toxic |  | >50 |  |  | 
5 | CCCCC/C=C/B(O)O | 40.34 | < 50 | inactive | 3.94 | 27.35 | inactive | 27.22 | 59.21 | 4.65 | Non-toxic |  |  |  |  | 
6 | COc1cc(/C=C/B2OC(C)(C)C(C)(C)O2)cc(OC)c1 | 48.18 | < 50 | inactive | 4.53 | 25.36 | inactive | 27.98 | 53.36 | 4.49 | Non-toxic |  |  |  |  | 
7 | COc1ccc(/C=C/B(O)O)cc1 | 44.35 | < 50 | inactive | 6 | 26.2 | inactive | 26.05 | 58.76 | 4.56 | Non-toxic |  |  |  |  | 
8 | OB(O)/C=C/c1ccc(F)cc1 | 37.73 | < 50 | inactive | 4.58 | 28.19 | inactive | 27.42 | 52.64 | 4.75 | Non-toxic |  | >50 |  |  | 
9 | CC1(C)OB(/C=C/c2cccc(C(F)(F)F)c2)OC1(C)C | 44.03 | < 50 | inactive | 4.75 | 33.77 | inactive | 43.29 | 45.55 | 5.53 | Non-toxic |  | >50 |  |  | 
10 | COc1cc(/C=C/B(O)O)cc(OC)c1 | 42.79 | < 50 | inactive | 6.23 | 23.11 | inactive | 32.03 | 74.75 | 4.7 | Non-toxic |  |  |  |  | 
11 | OB(O)/C=C/c1ccccc1 [STYRYLBORONIC ACID] | 42.22 |  | inactive | 4.25 | 21.84 | inactive | 30.62 | 53.23 | 4.6 | Non-toxic |  |  | 8.08 | inactive | inactive
12 | OB(O)/C=C/c1ccc(C(F)(F)F)cc1 | 35.67 |  | inactive | 4.47 | 31.48 | inactive | 27.02 | 38.23 | 4.3 | Non-toxic |  | >50 | 2.85 | inactive | inactive
13 | CC1(C)OB(/C=C/c2ccc(F)cc2F)OC1(C)C | 39.76 | < 50 | inactive | 6.06 | 31.51 | inactive | 34.77 | 53.1 | 5.33 | Non-toxic |  |  |  |  | 
14 | OB(O)c1ccc(C(F)(F)F)cc1 | 45.36 | < 50 | inactive | 5.85 | 23.32 | inactive | 26.59 | 73.23 | 5.76 | Non-toxic |  |  |  |  | 

From ChEMBL document CHEMBL2311255, “Discovery of alkenylboronic acids as neuroprotective agents affecting multiple biological targets involved in Alzheimer's disease” (Bioorg Med Chem Lett, 2013)
